US20200113954A1, “PHARMACEUTICAL AND FOOD COMPOSITION FOR THE TREATMENT OF VAGINAL AND INTESTINAL DYSBIOSIS” (priority 2018, published 2020)

Test system: vulvovaginal candidiasis
Test: Third pilot study: open-label, Microbio+ capsules vs topical clotrimazole in women with uncomplicated vulvovaginal candidiasis
Format: in vivo, human
Text: Study of the Effect of Microbio+ CAPSULES in Woman with Uncomplicated Vulvovaginal Candidiasis.
The primary endpoints are:
reduction in frequency of recurrences
re-equilibrium of the vaginal microflora (through assessment of clinical signs and Lactobacillus grade) in women with uncomplicated vulvovaginal candidiasis.
CLOTRIMAZOLE group: single administration of topical antifungal treatment with no maintenance cycle
Group B: Microbio+ for 15 consecutive days and maintenance cycle of 5 days a month in premenstrual phase for 3 months
Uncomplicated Vulvovaginal candidiasis;
Microscopic diagnosis of vulvovaginal candidiasis through wet mount or vaginal culture;
Not menopausal (defined as 12 or more months since last menstrual cycle at appropriate age);
The total study duration is 12 weeks.
Diagnosis (V0) and start of treatment
Day 15, day 30 and day 90 visits (V1, 2 and 3): At each visit, the patient was asked if they had taken the treatment regularly and if they had experienced any clinical symptoms or adverse events. A clinical examination, microscopic wet mount examination or (if available) cultural examination were performed to establish the effect of the treatment and the lactobacillus grade.
Primary outcomes: • Evaluation of the efficacy of Microbio+ in women with acute VVC: • 1. Clinical cure rate (resolution of symptoms) of VVC at 15, 30 and 90 days; • 2. Microbiological and microscopic cure of VVC (negative vaginal culture or absence of hyphae at wet mount); • 3. Recurrence rate (defined as the presence of symptoms or positive fungal culture or presence of hyphae at wet mount) in 3-month follow-up period.
Secondary outcomes: • Safety and tolerability of Microbio+ in adult women.

[1] = at 15 and 30 days, 20 patients per arm
[2] = within the 3 months of follow-up, 20 patients per arm

## Clc1ccccc1C(c1ccccc1)(c1ccccc1)n1ccnc1 [clotrimazole, Clotrimazole]
1 month, FIG. 6 summary
  clinical and microbiological cure in 1 month: 80%
[1]
  clinical and microbiological cure, number of women: 16 women
  clinical and microbiological cure, percent of women: 80%
[2]
  symptomatic recurrences (symptom recurrence rate), percent of women: 40%
  symptomatic recurrences, number of women: 8 women
